{"source": "patent EP1733731A1", "about": "“New uses of Glycerol derivatives in particular in cosmetics” (AGRO INDUSTRIE RECHERCHES ET DEVELOPPEMENTS (A.R.D.), priority 2005, dated 2006)", "key": {"MMP-1": {"molecular_target": "T1, MMP-1 (Homo sapiens, UniProt P03956)", "T1 construct": "La proMMP-1 recombinante (75 ng/mL) est activée par l'APMA", "T1 sequence (P03956 100-469)": "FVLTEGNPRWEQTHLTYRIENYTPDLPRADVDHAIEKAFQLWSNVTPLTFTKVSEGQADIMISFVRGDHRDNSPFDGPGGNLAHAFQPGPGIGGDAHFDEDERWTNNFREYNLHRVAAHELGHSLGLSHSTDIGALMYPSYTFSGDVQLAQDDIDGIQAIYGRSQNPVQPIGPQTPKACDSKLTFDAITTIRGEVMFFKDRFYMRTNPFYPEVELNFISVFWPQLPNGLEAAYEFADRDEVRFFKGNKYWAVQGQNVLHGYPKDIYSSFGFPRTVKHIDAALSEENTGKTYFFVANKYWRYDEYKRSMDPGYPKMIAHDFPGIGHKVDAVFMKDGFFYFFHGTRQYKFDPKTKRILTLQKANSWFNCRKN", "assay": "MMP-1 activity on fluorescent synthetic substrate (FRET)", "assay_type": "biochemical", "description": "La mesure de l'activité enzymatique des MMPs est basée sur le principe du transfert d'énergie par résonance, RET ou transfert d'énergie de fluorescence par résonance, FRET. Le substrat est constitué d'un oligopeptide comportant un groupement fluorescent (F), donneur d'énergie et un groupement éteignant (Q, pour quenching), accepteur d'énergie. Après hydrolyse, le groupement éteignant est libéré, permettant de mesurer l'augmentation de fluorescence.\nDe nombreux couples fluorescent/éteignant ont été développés pour la mesure de l'activité enzymatique des MMPs comme le couple 7-méthoxycoumarine-4-acétyl (Mca)/dinitrophenyl-diaminopropionyl (Dnp).\nAprès activation, la MMP-1 est pré-incubée à +20°C pendant 10 minutes en absence ou en présence d'effecteurs dans un tampon Tris-HCl 50 mM, NaCl 150 mM, CaCl2 5 mM pH 7,5 en plaque 96 puits noire dont les sites de liaisons non-spécifiques ont été bloqués à l'aide d'une solution de SAB à 0,1% (p/v) dans le même tampon. La réaction est initiée par addition de 10 µL de substrat à la concentration finale de 2 µM dans un volume réactionnel final de 200 µL. Les variations de fluorescence (λ excitation : 360 nm, λ émission : 465 nm) au cours du temps sont suivies à l'aide d'un spectrofluorimètre lecteur de plaque HTS 7000+ à +20°C. La courbe représentant la fluorescence (en RFU) en fonction du temps (en minutes) est tracée.\nLes intensités de fluorescence obtenues permettent d'estimer là vitesse initiale de l'enzyme en absence d'effecteur (V0) et en présence d'inhibiteur (Vi). […]\nLa proMMP-1 recombinante (75 ng/mL) est activée par l'APMA (Acide Phényl Mercurique Acétate). […] Le clivage de ce substrat est estimé par mesure de la fluorescence libérée (λexc = 360 nm; λem = 465 nm) à l'aide d'un spectrofluorimètre lecteur de plaques de type Perkin Elmer HTS 7000 Plus. Les intensités de fluorescence obtenues permettent d'estimer la vitesse initiale de l'enzyme en l'absence d'effecteur (Vo) et en présence d'inhibiteur (Vi). […]"}, "[1]": {"tested_on": "kératinocytes et fibroblastes dermiques", "assay": "degradation of a fluorescein-labelled type I collagen layer in a UV-A skin photo-ageing co-culture model", "assay_type": "cell-based", "conditions": "10 J.cm^-2 UV-A, 15 µg/mL plasminogen, 48 h, versus control without active, read-out: inhibition de ce \"vieillissement cutané\" (dégradation du tapis de collagène)"}}, "data": [{"smiles": "CCCCC/C=C\\C/C=C\\CCCCCCCCOC[C@H](CO[C@@H]1O[C@H](COC(=O)CCCCCCCCCCCCCCC)[C@H](O)[C@H](O)[C@H]1O)OCCCCCCCC/C=C\\C/C=C\\CCCCC", "note": "[ED23-11, 1,2-di-O-linoléyl-3-O-[6'-O-palmitoyl-β-D-galactopyranosyl]-sn-glycérol]", "values": [{"measurement": "inhibition at 25 µg/mL", "setting": "MMP-1; 25 µg/mL, read-out: Inhibition de MMP-1 (%)", "result": "42 ± 0.87", "unit": "%"}, {"measurement": "Action sur l'activité de la MMP-1 (Vi/V0) à isoconcentration", "setting": "MMP-1; at isoconcentration", "result": 168}, {"measurement": "Augmentation d'activité", "setting": "MMP-1; inhibition of type I collagenase, increase from one fractionation step to the next", "result": "2,72"}, {"measurement": "inhibition at 25 µg/mL", "setting": "[1]", "result": 70, "unit": "%"}]}]}
